Assays:
HT-29 cells = assay: CellTiter-Glo luminescent cell viability assay with HT-29 cells (72h incubation); assay type: cell-based, human; conditions: Homo sapiens, HT-29, HT29 cells, read-out: CTG HT29
Summary of the method: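 Viability read as CellTiter-Glo luminescence after 72 h compound exposure, with 10 μM staurosporine and DMSO as control wells. Seeding 400 cells per well, compound added 24 h post-plating; IC50 from curve fitting.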

hPMBC = assay: Chymotrypsin-like ProteasomeGlo assay in hPBMC; assay type: cell-based; conditions: Homo sapiens; read-out: Pglo hPBMC
Summary of the method: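 IC50 derived from luminescent chymotrypsin-like proteasome activity (Suc-LLVY-Glo substrate plus luciferin detection reagent). Measured after 105 min compound exposure at 37 °C, 5% CO2. Cells were human B cells purified from buffy-coat PBMC.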

[1] = molecular target: T1, β5 subunit of the human constitutive proteasome (CPS) (Homo sapiens, UniProt P28074); assay: β5 inhibition assay, human constitutive proteasome (Suc-LLVY-AMC); assay type: biochemical; conditions: IC50 class, Suc-LLVY-AMC substrate
T1 construct: purchased Boston Biochem E-360
Experimental: The enzymatic activity of the β5 subunit of the human constitutive proteasome (CPS) is analyzed. In another assay, which differs from the assay of the human constitutive proteasome only in using the human immunoproteasome (IPS) the enzymatic activity of the β5 subunit of the human immunoproteasome (IPS) is analyzed. […] Inhibition is indicated as IC50 [nM] (“-”=not measured).

Row | Compound | IC50 (HT-29 cells) | IC50 (hPMBC) | IC50 [1]
1 | Cc1ccc2cc1CNC(=O)C(CCc1ccccc1)NC(=O)[C@@H](NC(=O)OCc1ccccc1)CC(=O)N1CCCC(CCO2)C1 (stereo partly drawn) [Compound 503, benzyl ((12S)-9-phenethyl-5^4-methyl-8,11,14-trioxo-4-oxa-7,10-diaza-1(3,1)-piperidina-5(1,3)-benzenacyclotetradecaphane-12-yl)carbamate] | < 100 nM | 100 to 500 nM | < 100 nM
2 | Cc1ccc2cc1CNC(=O)[C@H](CCc1ccccc1)NC(=O)[C@@H](NC(=O)Cc1csc(N)n1)CC(=O)N1CCCC(CCO2)C1 (stereo partly drawn) [Compound 302, 2-(2-aminothiazol-4-yl)-N-((9S,12S)-5^4-methyl-8,11,14-trioxo-9-phenethyl-4-oxa-7,10-diaza-1(3,1)-piperidina-5(1,3)-benzenacyclotetradecaphane-12-yl)acetamide] | < 100 nM | < 100 nM | < 100 nM
3 | CC(=O)N[C@H]1CC(=O)N2CCCC(CCOc3ccc(C)c(c3)CNC(=O)C(CCc3cccnc3)NC1=O)C2 (stereo partly drawn) [Compound 549, N-((12S)-5^4-methyl-8,11,14-trioxo-9-(2-(pyridin-3-yl)ethyl)-4-oxa-7,10-diaza-1(3,1)-piperidina-5(1,3)-benzenacyclotetradecaphane-12-yl)acetamide] | < 100 nM | < 100 nM | < 100 nM
4 | Cc1ccc2cc1CNC(=O)[C@H](CCc1ccccc1)NC(=O)[C@@H](NC(=O)OCc1ccccc1)CCC(=O)N1CCC(CCO2)C1 (stereo partly drawn) [Compound 350, benzyl ((9S,12S)-5^4-methyl-8,11,15-trioxo-9-phenethyl-4-oxa-7,10-diaza-1(3,1)-pyrrolidina-5(1,3)-benzenacyclopentadecaphane-12-yl)carbamate] | < 100 nM | < 100 nM | < 100 nM
5 | Cc1ccc2cc1CNC(=O)C(CCc1cnccn1)NC(=O)[C@@H](NC(=O)Cc1ccc(N)cc1F)CC(=O)N1CCCC(CCO2)C1 (stereo partly drawn) [Compound 372, 2-(4-amino-2-fluorophenyl)-N-((9S,12S)-5^4-methyl-8,11,14-trioxo-9-(2-(pyrazin-2-yl)ethyl)-4-oxa-7,10-diaza-1(3,1)-piperidina-5(1,3)-benzenacyclotetradecaphane-12-yl) acetamide] | < 100 nM | < 100 nM | < 100 nM
6 | Cc1ccc2cc1CNC(=O)[C@H](CCc1ccccc1)NC(=O)[C@@H](NC(=O)OCc1ccccc1)CCCC(=O)N1CCCC3(CC(C3)O2)C1 [Compound 283, benzyl ((7S,10S)-34-methyl-6,9,14-trioxo-7-phenethyl-2-oxa-5,8-diaza-15(3,1)-piperidina-3(1,3)-benzena-1(1,3)-cyclobutanapentadecaphane-10-yl)carbamate] | 100 to 500 nM | 500 to 1000 nM | 500 to 1000 nM
7 | COC(C(=O)N[C@H]1CC(=O)N2CCCC(CCOc3ccc(C)c(c3)CNC(=O)[C@H](CCc3ccccc3)NC1=O)C2)c1ccc(N)cc1 (stereo partly drawn) [Compound 326, 2-(4-aminophenyl)-2-methoxy-N-((9S,12S)-5^4-methyl-8,11,14-trioxo-9-phenethyl-4-oxa-7,10-diaza-1(3,1)-piperidina-5(1,3)-benzenacyclotetradecaphane-12-yl)acetamide] | < 100 nM | < 100 nM | < 100 nM
8 | Cc1ccc2cc1CNC(=O)C(CCc1ccncc1)NC(=O)[C@@H](NC(=O)Cc1ccc(N)cc1F)CC(=O)N1CCCC(CCO2)C1 (stereo partly drawn) [Compound 344, 2-(4-amino-2-fluorophenyl)-N-((12S)-5^4-methyl-8,11,14-trioxo-9-(2-(pyridin-4-yl)ethyl)-4-oxa-7,10-diaza-1(3,1)-piperidina-5(1,3)-benzenacyclotetradecaphane-12-yl)acetamide] | < 100 nM | < 100 nM | < 100 nM
9 | CO[C@@H](C(=O)N[C@H]1CC(=O)N2CCCC(CCOc3ccc(C)c(c3)CNC(=O)C(c3cnn(C)c3)NC1=O)C2)c1ccccc1 (stereo partly drawn) [Compound 361, (2R)-2-methoxy-N-((12S)-5^4-methyl-9-(1-methyl-1H-pyrazol-4-yl)-8,11,14-trioxo-4-oxa-7,10-diaza-1(3,1)-piperidina-5(1,3)-benzenacyclotetradecaphane-12-yl)-2-phenylacetamide] | < 100 nM | < 100 nM | < 100 nM
10 | Cc1ccc2cc1CNC(=O)[C@H](CCc1ccccc1)NC(=O)[C@@H](NC(=O)Cc1cnc(N)s1)CC(=O)N1CCCC(CCO2)C1 (stereo partly drawn) [Compound 311, 2-(2-aminothiazol-5-yl)-N-((9S,12S)-5^4-methyl-8,11,14-trioxo-9-phenethyl-4-oxa-7,10-diaza-1(3,1)-piperidina-5(1,3)-benzenacyclotetradecaphane-12-yl)acetamide] | < 100 nM | < 100 nM | < 100 nM

Other lines, results leading:

Row | IC50 (HT-29 cells) | IC50 (hPMBC) | IC50 [1] | Compound
11 | < 100 nM | < 100 nM | < 100 nM | COc1cccc(CC(=O)N[C@H]2CC(=O)N3CCCC(CCOc4ccc(C)c(c4)CNC(=O)C(c4cnn(C)c4)NC2=O)C3)c1 (stereo partly drawn) [Compound 362, 2-(3-methoxyphenyl)-N-((12S)-5^4-methyl-9-(1-methyl-1H-pyrazol-4-yl)-8,11,14-trioxo-4-oxa-7,10-diaza-1(3,1)-piperidina-5(1,3)-benzenacyclotetradecaphane-12-yl)acetamide]
12 | < 100 nM | < 100 nM | < 100 nM | Cc1nc(C2NC(=O)[C@@H](NC(=O)OCc3ccccc3)CC(=O)N3CCCC(CCOc4ccc(C)c(c4)CNC2=O)C3)co1 (stereo partly drawn) [Compound 512, benzyl ((12S)-5^4-methyl-9-(2-methyloxazol-4-yl)-8,11,14-trioxo-4-oxa-7,10-diaza-1(3,1)-piperidina-5(1,3)-benzenacyclotetradecaphane-12-yl)carbamate]
13 | < 100 nM | < 100 nM | < 100 nM | Cc1ccc2cc1CNC(=O)[C@H](CCc1ccccc1)NC(=O)[C@@H](NC(=O)Cc1cc(Cl)c(N)c(Cl)c1)CC(=O)N1CCCC(CCO2)C1 (stereo partly drawn) [Compound 320, 2-(4-amino-3,5-dichlorophenyl)-N-((9S,12S)-5^4-methyl-8,11,14-trioxo-9-phenethyl-4-oxa-7,10-diaza-1(3,1)-piperidina-5(1,3)-benzenacyclotetradecaphane-12-yl)acetamide]
14 | < 100 nM | 100 to 500 nM | < 100 nM | Cc1ccc2cc1CNC(=O)[C@H](CCc1ccccc1)NC(=O)[C@@H](NC(=O)c1ccc3cc(N)ccc3c1)CC(=O)N1CCCC(CCO2)C1 (stereo partly drawn) [Compound 339, 6-amino-N-((9S,12S)-5^4-methyl-8,11,14-trioxo-9-phenethyl-4-oxa-7,10-diaza-1(3,1)-piperidina-5(1,3)-benzenacyclotetradecaphane-12-yl)-2-naphthamide]
15 | 100 to 500 nM | < 100 nM | < 100 nM | CC(=O)N[C@H]1CC(=O)N2CCCC(CCOc3ccc(C)c(c3)CNC(=O)C(c3cnn(CCC(=O)O)c3)NC1=O)C2 (stereo partly drawn) [Compound 567, 3-(4-((12S)-12-acetamido-5^4-methyl-8,11,14-trioxo-4-oxa-7,10-diaza-1(3,1)-piperidina-5(1,3)-benzenacyclotetradecaphane-9-yl)-1H-pyrazol-1-yl)propanoic acid]
16 | 100 to 500 nM | 500 to 1000 nM | 100 to 500 nM | Cc1ccc2cc1CNC(=O)[C@H](CCc1ccccc1)NC(=O)[C@@H](NC(=O)OCc1ccccc1)CC(=O)N1CCCC3(CC(C3)O2)C1 [Compound 300]
17 | < 100 nM | < 100 nM | < 100 nM | Cc1ccc2cc1CNC(=O)[C@H](CCc1ccccc1)NC(=O)[C@@H](NC(=O)Cc1cc(O)on1)CC(=O)N1CCCC(CCO2)C1 (stereo partly drawn) [Compound 335, 2-(5-hydroxyisoxazol-3-yl)-N-((9S,12S)-5^4-methyl-8,11,14-trioxo-9-phenethyl-4-oxa-7,10-diaza-1(3,1)-piperidina-5(1,3)-benzenacyclotetradecaphane-12-yl)acetamide]
18 | < 100 nM | < 100 nM | < 100 nM | CC(=O)N[C@H]1CC(=O)N2CCCC(CCOc3cccc(c3)CNC(=O)[C@H](CCc3ccccc3)NC1=O)C2 (stereo partly drawn) [Compound 364, N-((9S,12S)-8,11,14-trioxo-9-phenethyl-4-oxa-7,10-diaza-1(3,1)-piperidina-5(1,3)-benzenacyclotetradecaphane-12-yl)acetamide]
19 | 100 to 500 nM | < 100 nM | < 100 nM | Cc1ccc2cc1CNC(=O)[C@H](CCc1ccccc1)NC(=O)[C@@H](NC(=O)OCc1ccccc1)CCC(=O)N1CCC(CO2)C1 (stereo partly drawn) [Compound 349, benzyl ((8S,11S)-4^4-methyl-7,10,14-trioxo-8-phenethyl-3-oxa-6,9-diaza-1(3,1)-pyrrolidina-4(1,3)-benzenacyclotetradecaphane-11-yl)carbamate]
20 | < 100 nM | < 100 nM | < 100 nM | COC(=O)N(CC1NC(=O)[C@@H](NC(C)=O)CC(=O)N2CCCC(CCOc3ccc(C)c(c3)CNC1=O)C2)c1ccccc1 (stereo partly drawn) [Compound 560, methyl (((12S)-12-acetamido-5^4-methyl-8,11,14-trioxo-4-oxa-7,10-diaza-1(3,1)-piperidina-5(1,3)-benzenacyclotetradecaphane-9-yl)methyl)(phenyl)carbamate]
21 | < 100 nM | < 100 nM | < 100 nM | CC(=O)N[C@H]1CC(=O)N2CCCC(CCOc3ccc(C)c(c3)CNC(=O)C(c3cnn(C)c3)NC1=O)C2 (stereo partly drawn) [Compound 552, N-((12S)-5^4-methyl-9-(1-methyl-1H-pyrazol-4-yl)-8,11,14-trioxo-4-oxa-7,10-diaza-1(3,1)-piperidina-5(1,3)-benzenacyclotetradecaphane-12-yl)acetamide]

From US20240415819A1, “MACROCYCLIC COMPOUNDS AS PROTEASOME SUBUNIT BETA TYPE-5 INHIBITORS” (Lead Discovery Center GmbH, priority 2021, published 2024)
